{"source": "patent US8741836B2", "about": "“Polypeptides” (Novo Nordisk A/S, priority 2011, dated 2014)", "assay": "Assay (III) ThT fibrillation assay for physical stability", "type": "physicochemical", "details": "for ThT pH 4.0 lag time: pH 4.0, ThT fibrillation assay", "how_it_was_run": "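Freshly prepared, pH-adjusted formulations with 1 μM ThT incubated at 37 °C under 960 rpm orbital shaking (1 mm), fluorescence (ex 444, em 485 nm) read every 20 min. […] Peptide content before and after measured by reverse-phase HPLC against pramlintide standard.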", "note": "Starred links: 1 amine or outer side, 2 acyl side, 3 side chain; linkers in the order of their positions; H or OH if unused. Positions of bridges follow the written chain, without caps; N, C: chain ends. Residues, ends and D or L forms follow the SMILES beside them. Groups on a side chain read outwards from the residue. *: point of attachment. C20 diacid = O=C(O)CCCCCCCCCCCCCCCCCCC(=O)*; C18 diacid = O=C(O)CCCCCCCCCCCCCCCCC(=O)*; γGlu = O=C(O)[C@H](CCC(=O)[*:2])N[*:1]; AEEA = NCCOCCOCC(=O)O"}
{"smiles": "CC(C)C[C@H](NC(=O)[C@H](CCCNC(=N)N)NC(=O)[C@H](CCC(N)=O)NC(=O)[C@@H](NC(=O)[C@H](C)NC(=O)[C@@H]1CSSC[C@H](NC(=O)[C@H](CCCCN)NC(=O)CC[C@H](NC(=O)CCCCCCCCCCCCCCCCCCC(=O)O)C(=O)O)C(=O)N[C@@H](CC(N)=O)C(=O)N[C@@H]([C@@H](C)O)C(=O)N[C@@H](C)C(=O)N[C@@H]([C@@H](C)O)C(=O)N1)[C@@H](C)O)C(=O)N[C@@H](C)C(=O)N[C@@H](CCC(=O)O)C(=O)N[C@@H](Cc1ccccc1)C(=O)N[C@@H](CC(C)C)C(=O)N[C@@H](CCCNC(=N)N)C(=O)N[C@@H](Cc1c[nH]cn1)C(=O)N[C@@H](CO)C(=O)N[C@@H](CO)C(=O)N[C@@H](CC(N)=O)C(=O)N[C@@H](CC(N)=O)C(=O)N[C@@H](Cc1ccccc1)C(=O)NCC(=O)N[C@@H](C)C(=O)N1CCC[C@H]1C(=O)N[C@@H](CC(C)C)C(=O)N[C@@H](CO)C(=O)N[C@@H](CO)C(=O)N[C@H](C(=O)N[C@@H](CC(N)=O)C(=O)N[C@H](C(=O)NCC(=O)N[C@@H](CO)C(=O)N[C@@H](Cc1c[nH]cn1)C(=O)N[C@H](C(=O)N[C@@H](Cc1ccc(O)cc1)C(N)=O)[C@@H](C)O)C(C)C)[C@@H](C)O", "note": "[Example 65, N-alpha-[(S)-4-Carboxy-4-(19-carboxynonadecanoylamino)butyryl]-[Glu14,Arg17,Ala25,Pro26,Ser28,Ser29,His35]-pramlintide] ({C20 diacid-γGlu}-KCNTATCATQRLAEFLRHSSNNFGAPLSSTNVGSHTY-NH2; disulfide 2-7)", "values": [{"measurement": "ThT pH 4.0 lag time", "result": ">45", "unit": "h"}]}
{"smiles": "CC[C@H](C)[C@H](NC(=O)[C@@H]1CCCN1C(=O)CNC(=O)[C@H](Cc1ccccc1)NC(=O)[C@H](CC(N)=O)NC(=O)[C@H](CCC(N)=O)NC(=O)[C@H](CO)NC(=O)[C@H](CO)NC(=O)[C@H](Cc1c[nH]cn1)NC(=O)[C@H](Cc1c[nH]cn1)NC(=O)[C@H](CC(C)C)NC(=O)[C@H](Cc1ccccc1)NC(=O)[C@H](CCC(=O)O)NC(=O)[C@H](C)NC(=O)[C@H](CC(C)C)NC(=O)[C@H](CCCNC(=N)N)NC(=O)[C@H](CCC(N)=O)NC(=O)[C@@H](NC(=O)[C@H](C)NC(=O)[C@@H]1CSSC[C@H](NC(=O)CNC(=O)CC[C@H](NC(=O)CCCCCCCCCCCCCCCCCCC(=O)O)C(=O)O)C(=O)N[C@@H](CC(N)=O)C(=O)N[C@@H]([C@@H](C)O)C(=O)N[C@@H](C)C(=O)N[C@@H]([C@@H](C)O)C(=O)N1)[C@@H](C)O)C(=O)N[C@@H](CC(C)C)C(=O)N1CCC[C@H]1C(=O)N1CCC[C@H]1C(=O)N[C@H](C(=O)N[C@@H](CC(N)=O)C(=O)N[C@H](C(=O)NCC(=O)N[C@@H](CO)C(=O)N[C@@H](CCC(N)=O)C(=O)N[C@H](C(=O)N1CCC[C@H]1C(N)=O)[C@@H](C)O)C(C)C)[C@@H](C)O", "note": "[Example 137, N-alpha-[(S)-4-Carboxy-4-(19-carboxynonadecanoylamino)butyryl]-[Gly1,Glu14,His17,Gln21,Gln35,Pro37]-pramlintide] ({C20 diacid-γGlu}-GCNTATCATQRLAEFLHHSSQNFGPILPPTNVGSQTP-NH2; disulfide 2-7 (inferred))", "values": [{"measurement": "ThT pH 4.0 lag time", "result": 29, "unit": "h"}]}
{"smiles": "CC[C@H](C)[C@H](NC(=O)[C@@H]1CCCN1C(=O)CNC(=O)[C@H](Cc1ccccc1)NC(=O)[C@H](CC(N)=O)NC(=O)[C@H](CCCCNC(=O)COCCOCCNC(=O)COCCOCCNC(=O)CC[C@H](NC(=O)CCCCCCCCCCCCCCCCCCC(=O)O)C(=O)O)NC(=O)[C@H](CO)NC(=O)[C@H](CO)NC(=O)[C@H](CCCNC(=N)N)NC(=O)[C@@H](NC(=O)[C@H](CC(C)C)NC(=O)[C@H](Cc1ccccc1)NC(=O)[C@H](CCC(=O)O)NC(=O)[C@H](C)NC(=O)[C@H](CC(C)C)NC(=O)[C@H](CCCNC(=N)N)NC(=O)[C@H](CCC(N)=O)NC(=O)[C@@H](NC(=O)[C@H](C)NC(=O)[C@@H]1CSSC[C@H](NC(=O)[C@@H](N)CCCCN)C(=O)N[C@@H](CC(N)=O)C(=O)N[C@@H]([C@@H](C)O)C(=O)N[C@@H](C)C(=O)N[C@@H]([C@@H](C)O)C(=O)N1)[C@@H](C)O)C(C)C)C(=O)N[C@@H](CC(C)C)C(=O)N[C@@H](CO)C(=O)N[C@@H](CCCNC(=N)N)C(=O)N[C@H](C(=O)N[C@@H](CC(N)=O)C(=O)N[C@H](C(=O)NCC(=O)N[C@@H](CO)C(=O)N[C@@H](CCCNC(=N)N)C(=O)N[C@H](C(=O)N[C@@H](Cc1ccc(O)cc1)C(N)=O)[C@@H](C)O)C(C)C)[C@@H](C)O", "note": "[Example 150, N-epsilon21-[2-(2-{2-[2-(2-{2-[(S)-4-Carboxy-4-(19-carboxyheptadecanoylamino)butyrylamino]ethoxy}ethoxy)acetylamino]ethoxy}ethoxy)acetyl]-[Glu14,Arg18,Lys21,Ser28,Arg29,Arg35]-pramlintide] (H-KCNTATCATQRLAEFLVRSSK([AEEA-AEEA-γGlu-C20 diacid])NFGPILSRTNVGSRTY-NH2; disulfide 2-7)", "values": [{"measurement": "ThT pH 4.0 lag time (physical stability in fibrillogenesis assay)", "result": ">45", "unit": "h"}]}
{"smiles": "CC[C@H](C)[C@H](NC(=O)[C@@H]1CCCN1C(=O)CNC(=O)[C@H](Cc1ccccc1)NC(=O)[C@H](CC(N)=O)NC(=O)[C@H](CO)NC(=O)[C@H](CO)NC(=O)[C@H](CO)NC(=O)[C@H](Cc1c[nH]cn1)NC(=O)[C@H](CCCCNC(=O)COCCOCCNC(=O)COCCOCCNC(=O)CC[C@H](NC(=O)CCCCCCCCCCCCCCCCC(=O)O)C(=O)O)NC(=O)[C@H](CC(C)C)NC(=O)[C@H](Cc1ccccc1)NC(=O)[C@H](CCC(=O)O)NC(=O)[C@H](C)NC(=O)[C@H](CC(C)C)NC(=O)[C@H](CCCNC(=N)N)NC(=O)[C@H](CCC(N)=O)NC(=O)[C@@H](NC(=O)[C@H](C)NC(=O)[C@@H]1CSSC[C@H](NC(=O)[C@@H](N)CCCCN)C(=O)N[C@@H](CC(N)=O)C(=O)N[C@@H]([C@@H](C)O)C(=O)N[C@@H](C)C(=O)N[C@@H]([C@@H](C)O)C(=O)N1)[C@@H](C)O)C(=O)N[C@@H](CC(C)C)C(=O)N1CCC[C@H]1C(=O)N1CCC[C@H]1C(=O)N[C@H](C(=O)N[C@@H](CC(N)=O)C(=O)N[C@H](C(=O)NCC(=O)N[C@@H](CO)C(=O)N[C@@H](CCC(=O)O)C(=O)N[C@H](C(=O)N[C@@H](Cc1ccc(O)cc1)C(N)=O)[C@@H](C)O)C(C)C)[C@@H](C)O", "note": "[Example 83, N-epsilon17-[2-(2-{2-[2-(2-{2-[(S)-4-Carboxy-4-(17-carboxyheptadecanoylamino)butyrylamino]ethoxy}ethoxy)acetylamino]ethoxy}ethoxy)acetyl]-[Glu14,Lys17,Ser21,Glu35]-pramlintide] (H-KCNTATCATQRLAEFLK([AEEA-AEEA-γGlu-C18 diacid])HSSSNFGPILPPTNVGSETY-NH2; disulfide 2-7 (inferred); N-terminus assumed)", "values": [{"measurement": "ThT pH 4.0 lag time (physical stability in fibrillogenesis assay)", "result": ">45", "unit": "h"}, {"measurement": "ThT pH 4.0 lag time", "result": ">45", "unit": "h"}]}
{"smiles": "CC[C@H](C)[C@H](NC(=O)[C@@H]1CCCN1C(=O)CNC(=O)[C@H](Cc1ccccc1)NC(=O)[C@H](CC(N)=O)NC(=O)[C@H](CCC(N)=O)NC(=O)[C@H](CO)NC(=O)[C@H](CO)NC(=O)[C@H](Cc1c[nH]cn1)NC(=O)[C@H](CCCNC(=N)N)NC(=O)[C@H](CC(C)C)NC(=O)[C@H](Cc1ccccc1)NC(=O)[C@H](CCC(=O)O)NC(=O)[C@H](C)NC(=O)[C@H](CC(C)C)NC(=O)[C@H](CCCNC(=N)N)NC(=O)[C@H](CCC(N)=O)NC(=O)[C@@H](NC(=O)[C@H](C)NC(=O)[C@@H]1CSSC[C@H](NC(=O)[C@H](CCC(=O)O)NC(=O)[C@H](CCCNC(=N)N)NC(=O)[C@H](CCC(=O)O)NC(=O)CC[C@H](NC(=O)CCCCCCCCCCCCCCCCCCC(=O)O)C(=O)O)C(=O)N[C@@H](CC(N)=O)C(=O)N[C@@H]([C@@H](C)O)C(=O)N[C@@H](C)C(=O)N[C@@H]([C@@H](C)O)C(=O)N1)[C@@H](C)O)C(=O)N[C@@H](CC(C)C)C(=O)N1CCC[C@H]1C(=O)N1CCC[C@H]1C(=O)N[C@H](C(=O)N[C@@H](CC(N)=O)C(=O)N[C@H](C(=O)NCC(=O)N[C@@H](CO)C(=O)N[C@@H](CC(N)=O)C(=O)N[C@H](C(=O)N1CCC[C@H]1C(N)=O)[C@@H](C)O)C(C)C)[C@@H](C)O", "note": "[Example 161, N-alpha-[(S)-4-Carboxy-4-(19-carboxynonadecanoylamino)butyryl]-Glu-Arg-[Glu1,Glu14,Arg17,Gln21,Pro37]-pramlintide] ({C20 diacid-γGlu}-ERECNTATCATQRLAEFLRHSSQNFGPILPPTNVGSNTP-NH2; disulfide 4-9 (inferred))", "values": [{"measurement": "ThT pH 4.0 lag time (physical stability in fibrillogenesis assay)", "result": ">45", "unit": "h"}, {"measurement": "ThT pH 4.0 lag time", "result": ">45", "unit": "h"}]}
{"smiles": "CC[C@H](C)[C@H](NC(=O)[C@@H]1CCCN1C(=O)CNC(=O)[C@H](Cc1ccccc1)NC(=O)[C@H](CC(N)=O)NC(=O)[C@H](CC(N)=O)NC(=O)[C@H](CO)NC(=O)[C@H](CO)NC(=O)[C@H](Cc1c[nH]cn1)NC(=O)[C@H](Cc1c[nH]cn1)NC(=O)[C@H](CC(C)C)NC(=O)[C@H](Cc1ccccc1)NC(=O)[C@H](CCC(=O)O)NC(=O)[C@H](C)NC(=O)[C@H](CC(C)C)NC(=O)[C@H](CCCNC(=N)N)NC(=O)[C@H](CCC(N)=O)NC(=O)[C@@H](NC(=O)[C@H](C)NC(=O)[C@@H]1CSSC[C@H](NC(=O)[C@H](CCCCN)NC(=O)[C@H](Cc2c[nH]cn2)NC(=O)CC[C@H](NC(=O)CCCCCCCCCCCCCCCCCCC(=O)O)C(=O)O)C(=O)N[C@@H](CC(N)=O)C(=O)N[C@@H]([C@@H](C)O)C(=O)N[C@@H](C)C(=O)N[C@@H]([C@@H](C)O)C(=O)N1)[C@@H](C)O)C(=O)N[C@@H](CC(C)C)C(=O)N1CCC[C@H]1C(=O)N1CCC[C@H]1C(=O)N[C@H](C(=O)N[C@@H](CC(N)=O)C(=O)N[C@H](C(=O)NCC(=O)N[C@@H](CO)C(=O)N[C@@H](Cc1c[nH]cn1)C(=O)N[C@H](C(=O)N[C@@H](Cc1ccc(O)cc1)C(N)=O)[C@@H](C)O)C(C)C)[C@@H](C)O", "note": "[Example 66, N-alpha-[(S)-4-Carboxy-4-(19-carboxynonadecanoylamino)butyryl]-His-[Glu14,His17,His35]-pramlintide] ({C20 diacid-γGlu}-HKCNTATCATQRLAEFLHHSSNNFGPILPPTNVGSHTY-NH2; disulfide 3-8)", "values": [{"measurement": "ThT pH 4.0 lag time", "result": ">45", "unit": "h"}]}
